This passage reports IC50 results from PubChem BioAssay AID1645861 (Buhrlage Lab, Dana-Farber Cancer Institute and Novartis …, 2021).

Activity calls are given as the source filed them.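 Rule for the calls: active = compounds whose peak USP7 inhibition across the dose series reached 30% or more; inactive = the rest.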

One may read the IC50 as the concentration needed to halve the response being measured.

In the assay the target is Ubiquitin carboxyl-terminal hydrolase 7 (Homo sapiens) (UniProt Q93009). The assay is described as follows: Biochemical concentration-response for ubiquitin-specific peptidase 7 DUB inhibitors, verifying primary hits (AID 1645861). Particulars: purified USP7, Ub-rhodamine cleavage fluorescence, 60 min.
Chain of Ubiquitin carboxyl-terminal hydrolase 7 (Homo sapiens) (Q93009 whole entry, looked up): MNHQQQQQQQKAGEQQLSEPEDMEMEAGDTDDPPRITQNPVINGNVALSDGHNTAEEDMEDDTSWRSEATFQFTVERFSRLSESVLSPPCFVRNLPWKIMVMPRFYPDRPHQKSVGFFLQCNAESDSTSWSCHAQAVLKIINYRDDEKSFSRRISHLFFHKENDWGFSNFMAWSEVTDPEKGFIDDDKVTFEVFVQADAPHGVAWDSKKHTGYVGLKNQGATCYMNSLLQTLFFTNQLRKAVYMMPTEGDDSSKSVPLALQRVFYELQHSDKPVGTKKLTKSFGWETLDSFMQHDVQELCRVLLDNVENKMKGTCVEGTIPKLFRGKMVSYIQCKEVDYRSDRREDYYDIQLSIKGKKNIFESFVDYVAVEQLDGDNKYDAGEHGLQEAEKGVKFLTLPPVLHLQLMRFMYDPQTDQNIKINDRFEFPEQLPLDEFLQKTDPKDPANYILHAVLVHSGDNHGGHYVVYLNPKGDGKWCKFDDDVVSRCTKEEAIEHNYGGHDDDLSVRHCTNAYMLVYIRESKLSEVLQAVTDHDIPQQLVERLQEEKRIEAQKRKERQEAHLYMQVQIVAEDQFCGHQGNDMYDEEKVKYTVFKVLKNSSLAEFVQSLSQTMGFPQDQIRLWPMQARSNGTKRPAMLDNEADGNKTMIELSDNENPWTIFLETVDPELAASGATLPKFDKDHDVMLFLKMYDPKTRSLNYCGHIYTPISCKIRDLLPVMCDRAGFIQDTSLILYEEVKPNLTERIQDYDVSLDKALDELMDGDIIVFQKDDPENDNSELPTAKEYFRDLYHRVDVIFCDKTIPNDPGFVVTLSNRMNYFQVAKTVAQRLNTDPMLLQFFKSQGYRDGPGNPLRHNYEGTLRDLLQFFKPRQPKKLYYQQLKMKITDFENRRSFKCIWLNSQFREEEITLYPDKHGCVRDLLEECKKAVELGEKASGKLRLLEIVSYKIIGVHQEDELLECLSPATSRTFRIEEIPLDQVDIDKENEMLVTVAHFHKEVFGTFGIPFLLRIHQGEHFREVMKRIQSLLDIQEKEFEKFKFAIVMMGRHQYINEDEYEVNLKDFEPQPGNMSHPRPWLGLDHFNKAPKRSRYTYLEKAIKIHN
As for `O=C1c2ccccc2C(=O)c2c(O)c(O)cc(O)c21`, the concentration for half-maximal inhibition (IC50) is 45.6 µM.
Regarding `O=C(Nc1ccccc1-c1nc2ccccc2[nH]1)c1sc2ccccc2c1Cl`, the IC50 is 35.7 µM.
On to `Cn1c2ccccc2c2ncn(CCCN3CCOCC3)c(=O)c21`, for which the IC50 was > 50 µM (inactive).
For the compound `COc1ccc(NC(=O)Cn2c(=O)n(Cc3ccco3)c(=O)c3ccc(C(=O)NC4CCCC4)cc32)cc1`, the IC50 was > 50 µM (inactive).
Take `O=C(CSc1oc(-c2ccc(F)cc2)nc1S(=O)(=O)c1ccc(F)cc1)Nc1ccc(F)cc1`: the IC50 is > 50 µM (inactive).
Regarding `COc1cc(-c2ccccc2)c(O)c(O)c1-c1ccccc1`, the IC50 was 22.1 µM.
Consider `O=C(c1cnc2[nH][nH]c(=O)c2c1)c1cc(Cl)cc(Cl)c1O`, for which the IC50 was 15.1 µM.
As for `Cc1ccc2[nH]c(=O)c(-c3nc4ccccn4c3NCc3ccccc3)cc2c1`, the IC50 was > 50 µM (inactive).
Consider `COc1cc2c(cc1OC)-c1cc(Nc3ccc(Br)cc3)nc(=O)n1CC2`, for which the IC50 was > 50 µM (inactive).
As for `O=C(CSc1nnc2n(-c3ccccc3)c(=O)c3ccccc3n12)c1ccc(F)cc1`, the IC50 is > 50 µM (inactive).
With `O=C(CSc1nc2c(cnn2-c2ccccc2)c(=O)[nH]1)Nc1ccc(Cl)cc1F` the figure was > 50 µM (inactive); with `CC(OC(=O)c1cc(S(=O)(=O)Nc2ccccc2F)ccc1Cl)C(=O)Nc1ccc([N+](=O)[O-])cc1C(F)(F)F` (stereo not drawn), > 50 µM (inactive).
Regarding `CCOc1ccc(-c2nnc(-c3cnc4onc(C5CCCC5)c4c3)o2)cc1`, the IC50 was > 50 µM (inactive).
On to `Cc1cccc(C)c1NC(=O)CN1C(=O)CC(c2ccccc2)=Nc2ccccc21`, for which the IC50 is > 50 µM (inactive).
With `CC(C)(C)C(=O)[C@@H]1[C@@H](C(=O)c2ccc3c(c2)OCO3)[C@@]2(C(=O)Nc3ccccc32)[C@H]2c3ccccc3C=CN12`, the IC50 is > 50 µM (inactive).
With `O=C(CCCc1nnc2c(=O)n(-c3cccc(F)c3)ccn12)NCc1ccc(F)cc1` the figure was > 50 µM (inactive).
With `Cc1cc(C(=O)N2CCOCC2)c(C)n1-c1ccc(O)cc1` the figure was > 50 µM (inactive); with `Cc1nc(SCC(=O)NC(C)c2ccccc2)c2oc3ccccc3c2n1` (stereo not drawn), > 50 µM (inactive); with `CCOc1ccc(NC(=O)Cn2c(=O)n(CCC(=O)NCc3ccco3)c(=O)c3ccccc32)cc1`, > 50 µM (inactive).
Consider `COc1ccccc1CNC(=O)CCCCn1c(=O)c2ccccc2n(Cc2ccc(C)cc2)c1=O`, for which the IC50 is > 50 µM (inactive).
For `COc1ccc(CCNC(=O)Cn2c(=O)c3sccc3n(Cc3cccc([N+](=O)[O-])c3)c2=O)cc1OC`, the IC50 was > 50 µM (inactive).
For the compound `COc1ccc(NC(=O)Cn2cc(C(=O)c3ccccc3)c(=O)c3cc(Cl)ccc32)cc1OC`, the IC50 was > 50 µM (inactive).
With `Cc1nn(-c2ccccc2)c2c1N=C1C(Cl)=CC(Cl)=CN1C21C(=O)Nc2ccccc21` (stereo not drawn) the figure was 17.4 µM; with `CN(C)[C@H]1C(=O)C(C(N)=O)=C(O)C2(O)C(=O)C3=C(O)c4c(O)cccc4C(C)(O)C3C(O)C12` (stereo partly drawn), 34.1 µM; with `CCn1cc2c(n1)c(=O)n(Cc1ccccc1)c(=O)n2CC(=O)Nc1ccc(OC)cc1`, > 50 µM (inactive).
As to `Cc1ccc(CNC(=O)Cn2c(=O)n(CCCC(=O)NCc3ccc(F)cc3)c(=O)c3ccccc32)cc1`, the IC50 was > 50 µM (inactive).
Turning to `CC1=C(Cn2c3cccc(=O)c-3nc3ccccc32)CCC(C)(C)C1`, the IC50 is > 50 µM (inactive).
On to `O=C(Nc1nccs1)C1c2ccccc2C(=O)N(Cc2ccccc2)C12CCCC2` (stereo not drawn), for which the IC50 was > 50 µM (inactive).
With `COc1cc(OC)cc(N2C(=O)N(CC(=O)c3ccc(Br)cc3)c3ccccc3S2(=O)=O)c1` the figure was > 50 µM (inactive); with `CCOC(=O)c1ccc(NC(=O)Cn2c(=O)n(CC(=O)NCc3ccco3)c(=O)c3ccccc32)cc1`, > 50 µM (inactive).
`Cc1ccc2c(c1)c(=O)c(C(=O)c1ccccc1)cn2CC(=O)Nc1ccccc1`: the IC50 was > 50 µM (inactive).
Regarding `COc1ccc(Cl)cc1NC(=O)Cn1c(=O)n(CCCCC(=O)NCCc2ccccc2)c(=O)c2ccccc21`, the IC50 is > 50 µM (inactive).
With `Cc1cccc(C(=O)Nc2cccc(SC(C(=O)Nc3ccc(Cl)c(C(=O)O)c3)c3ccccc3)c2)c1` (stereo not drawn) the figure was 34.1 µM.
On to `CC[C@@H](C(=O)[C@@H](C)[C@@H](O)[C@H](C)CCc1ccc(C)c(O)c1C(=O)O)[C@@H]1O[C@](CC)([C@H]2CC[C@](O)(CC)[C@H](C)O2)C[C@@H]1C`, for which the IC50 was 28.6 µM.
With `CC(=O)NS(=O)(=O)c1ccc(NC(=O)/C=C/c2cn(-c3ccccc3)nc2-c2ccccc2)cc1`, the IC50 was 36.4 µM.
For `Cc1nc(-c2ccc(Cl)cc2)oc1C(=O)Nc1ccc(Cl)cc1`, the IC50 was > 50 µM (inactive).
For the compound `Cc1ccc(-c2cc(C(F)F)n3ncc(C(=O)Nc4ccc(O)cc4)c3n2)cc1`, the IC50 was > 50 µM (inactive).
Turning to `CC(C)[C@H]1CC[C@@]2(CO2)[C@H]2C(=O)OCC(C(=O)O)=C[C@H]12`, the IC50 was > 50 µM (inactive).
On to `CC(=O)[C@H]1c2c(c(O)c3c(O)cccc3c2-c2c3c(c(O)c4c(O)cccc24)C(=O)C[C@](C)(O)[C@H]3C(C)=O)C(=O)C[C@]1(C)O`, for which the IC50 was > 50 µM (inactive).
With `O=C(Cn1c(=O)n(Cc2ccccc2)c(=O)c2ncccc21)NCc1ccccc1Cl` the figure was 43.6 µM; with `O=C(NCCc1ccccc1)c1ccc2c(=O)n(Cc3ccco3)c(=O)n(Cc3cccc([N+](=O)[O-])c3)c2c1`, 13.4 µM.
For the compound `CCCn1cc(C(=O)N2CCC3(CC2)CC2(CO3)Nc3ccccc3-n3cccc32)c(C)n1` (stereo not drawn), the IC50 was > 50 µM (inactive).
Turning to `COc1cccc(CNC(=O)c2nnn(CC(=O)Nc3cc(C)ccc3C)c2N)c1`, the IC50 is > 50 µM (inactive).
On to `Cc1nc(C(=O)NC2(O)C(=O)c3ccccc3C2=O)cs1`, for which the IC50 was > 50 µM (inactive).
Consider `O=c1[nH]c(C2CCN(S(=O)(=O)c3ccc(S(=O)(=O)NC4CCCC4)cc3)CC2)nc2c1nnn2Cc1cccc(Cl)c1`, for which the IC50 is > 50 µM (inactive).
For `Cc1ccc(Cn2cc(-c3noc(C(=O)Nc4cc(F)ccc4F)n3)nn2)cc1`, the IC50 was > 50 µM (inactive).
Take `O=C(OC1CSc2nc3ccccc3n2C1)c1ccc([N+](=O)[O-])o1` (stereo not drawn): the IC50 was > 50 µM (inactive).
As to `O=C(c1ccccn1)N1CCC2(CC1)CC1(CO2)Nc2ccccc2-n2cccc21` (stereo not drawn), the IC50 is > 50 µM (inactive).
